Experimental data as given in patent US20090253720A1, “ANTIFOLATE COMPOSITIONS” (Chelsea Therapeutics, Inc., priority 2008, published 2009).
Several values for one entry are separate records, joined by “and”; a condition that tells them apart may be missing. Equal values may be shown once. One block for each compound: values may come before it.

What was measured:
[1] = Comparative dissolution with cyclodextrin formulation (FIG. 4); assay type: physicochemical; conditions: 45 minutes
Excerpt: Compositions according to the invention using cyclodextrins have also shown similarly beneficial results. The improved solubility of the inventive compositions comprising an antifolate compound and a cyclodextrin is illustrated in FIG. 4, wherein the comparative dissolution of an antifolate compound is again given as a percent dissolution as a function of time. The antifolate compound was again tested in the diacid form (denoted as “Free acid”), in the sodium salt form (denoted as “Disodium salt”), and as the sodium salt form in a pharmaceutical composition according to the invention including a cyclodextrin (denoted as “Cyclodextrin formulation”). […] The inventive formulation approached 100% dissolution within 30 minutes. After 45 minutes, the salt alone and the diacid alone achieved only about 70% dissolution and about 45% dissolution, respectively.

[2] = Procedure: A salt screen of this compound was conducted with various pharmaceutically acceptable counterions to analyze aqueous solubility of the formed salts. Formed solids suspected of forming salts were analyzed by X-ray powder diffraction (XRPD).
[3] = target: T1, reduced folate carrier (RFC) (Homo sapiens, UniProt P41440); experiment: [3H]MTX transport inhibition in intact CCRF-CEM human T-cell leukemia cells; assay type: cell-based; conditions: 2 μM [3H]MTX, 37°, 5 min uptake
T1 construct: endogenous in cells; host or cells: CCRF-CEM human T-cell leukemia cells
T1 sequence (P41440 1-591): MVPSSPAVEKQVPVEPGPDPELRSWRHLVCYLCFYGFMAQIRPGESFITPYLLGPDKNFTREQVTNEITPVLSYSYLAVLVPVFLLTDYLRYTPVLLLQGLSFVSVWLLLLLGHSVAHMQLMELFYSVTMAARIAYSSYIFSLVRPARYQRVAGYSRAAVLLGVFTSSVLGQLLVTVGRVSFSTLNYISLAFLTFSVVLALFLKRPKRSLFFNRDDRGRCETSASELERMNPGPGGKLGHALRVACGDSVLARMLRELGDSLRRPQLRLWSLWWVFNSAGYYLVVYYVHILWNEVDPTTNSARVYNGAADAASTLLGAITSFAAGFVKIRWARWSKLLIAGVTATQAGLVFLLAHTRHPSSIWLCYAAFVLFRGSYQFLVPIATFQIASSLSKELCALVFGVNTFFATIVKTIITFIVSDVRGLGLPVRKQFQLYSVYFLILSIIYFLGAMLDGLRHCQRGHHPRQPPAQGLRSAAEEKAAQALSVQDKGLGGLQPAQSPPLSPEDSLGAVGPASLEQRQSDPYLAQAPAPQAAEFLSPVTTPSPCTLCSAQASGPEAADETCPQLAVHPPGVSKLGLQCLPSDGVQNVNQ
Procedure: Transport of 2 μM [^3H]MTX (methotrexate) at 37° by intact CCRF-CEM human T-cell leukemia was assayed by a micro-method utilizing repeated iced saline washes to remove extracellular drug. Such method is disclosed in McGuire J J, et al., Cancer Res 1989; 49:4517-25 and McGuire J J, et al., Cancer Res 2006; 66:3836-44, both of which are incorporated herein by reference in their entirety. The washed cell pellets were solubilized in 1 ml of 0.3% Triton X-100 at 37° C. for 1 hour before transfer to scintillation vials; 10 ml Ecoscint liquid scintillation fluid (National Diagnostics, Atlanta, Ga.) was added and radioactivity was quantitated in a Beckman LS6500 scintillation counter. […] Uptake was initiated by addition of 200 μL of cells at ≈2.5×10^7 cells/ml and 2 aliquots (100 μL) were removed to iced saline and processed at 5 min. Adventitious [^3H]MTX binding was determined at 0° C. by adding 200 μl of cells to 25 μl of PBS in a tube and cooling to 0° C. in ice for ≧5 min; following addition of 25 μl of [^3H]MTX to achieve a final concentration of 2 μM, 2 aliquots (100 μL) were immediately removed to iced saline and processed.
Analytical HPLC was performed on a Rainin Instruments HPLC system using the Dynamax controller and data capture module run on a Macintosh computer, such as described in McGuire J J, et al., J Biol Chem 1990; 265:14073-9, which is incorporated herein by reference in its entirety. C18 reversed-phase (0.4×25 cm; Rainin Microsorb, 5μ) HPLC was performed at 25° C. Detection was by absorbance at 280 and/or 254 nm. For MTX (tr, ≈31.6 min) and 7-OH-MTX (tr, ≈35.2 min) the gradient was from 4-13% ACN in 0.1 M Na-acetate, pH 5.5 over 41 min at 1 ml/min.

[4] = Comparative dissolution in 0.1N hydrochloric acid, USP dissolution apparatus with HPLC (FIG. 2, FIG. 3); assay type: physicochemical
Procedure: The percent dissolution for both compounds in 0.1N hydrochloric acid as a function of time was evaluated using a standard USP dissolution apparatus and high performance liquid chromatography (HPLC) test equipment. […] This is particularly relevant in the case of pharmaceutical compositions of the invention for oral delivery, wherein the composition will encounter an acidic environment, such as in the stomach. Greater solubility of the sodium salt compound indicates a greater amount of the active compound will be available for absorption.
Such improved solubility is illustrated in FIG. 3, wherein the comparative dissolution of an antifolate compound is given as the percent dissolution as a function of time. The antifolate compound was tested in the diacid form (denoted as “CH-1504 free acid”), in the sodium salt form (denoted as “CH-1504 sodium salt”), and as the sodium salt form in a pharmaceutical composition according to the invention including […]® 44/14 (denoted as “CH-1504 formulation”). Dissolution was tested using 0.1N hydrochloric acid. […] The inventive formulation achieved 90% dissolution by 30 minutes and 100% dissolution by 45 minutes. After 90 minutes, the salt alone and the diacid alone achieved only about 75% dissolution and about 50% dissolution, respectively.

[5] = Pharmacokinetics of a single oral dose in a healthy subject; conditions: human, in vivo
Procedure: The pharmacokinetic parameters of a single oral dose of the antifolate compound according to the invention were evaluated. In Comparative Examples 2-7, 1 to 20 mg of an antifolate compound according to Formula (9) was administered in the racemic free acid form (i.e., not as part of a pharmaceutical formulation). The drug product was supplied as powder-filled gelatin capsules in three active strengths (1.0 mg, 2.5 mg. and 5.0 mg) with each capsule including enough microcrystalline cellulose to bring the total capsule weight to 288 mg. […] In Examples 2-8, the test material was administered to a healthy subject, and blood samples were taken before dosing and at 0.5, 1, 1.5, 2, 2.5, 3, 3.5, 4, 5, 6, 8, 10, 12, 16, 24, and 48 hours after dosing. The calculated pharmacokinetic values observed are provided below in Table 3.
In Table 3, Cmax is the maximum measured plasma concentration of the antifolate compound administered and tmax is the time to Cmax. […] Thus, the pharmaceutical formulations of the present invention allow for greatly reducing the amount of antifolate compound that is administered to a subject while actually increasing the amount of the compound that is available for therapeutic action.

[6] = Plasma concentration after oral L- or D-CH-1504 in non-fasted rats (Example 14); assay type: in vivo; conditions: individual animals; for Plasma conc. of D-CH-1504 / Plasma conc. of L-CH-1504: non-fasted female Lewis rats
Procedure: L- or D-CH-1504 was administered once orally to non-fasted female Lewis rats at a dose of 10 mg/kg (vehicle: 0.11% carboxymethylcellulose/0.45% TWEEN 80, formulation: suspension). About 750 μL of blood was collected from the jugular vein at 1 and 3 hours after administration. And then, whole of blood was collected from the femoral vein under diethyl ether anesthesia at 6 hours after administration. The collected blood was immediately centrifuged to obtain a plasma sample. L- and D-CH-1504 were extracted from the plasma by solid-phase extraction and were then determined with a LC/MS/MS.

CCRF-CEM cells = experiment: Growth inhibition of CCRF-CEM cells by continuous (120 hr) drug exposure; assay type: cell-based, human; conditions: continuous 120 hr exposure
Procedure: The human T-lymphoblastic leukemia cell line CCRF-CEM (described in Foley G F, et al., Cancer 1965; 18:522-9) was cultured as described in McCloskey D E, et al., J Biol Chem 1991; 266:6181-7 (both of which are incorporated herein by reference in their entirety) and verified to be negative for Mycoplasma contamination (Mycoplasma Plus PCR primers, Stratagene, La Jolla, Calif.).

[7] = Hygroscopicity study of salts at 75% relative humidity for five days; assay type: physicochemical
Excerpt: Hygroscopicity and approximate solubility in aqueous and buffered solutions of ammonium, besylate, calcium, esylate, sulfate, HCl, mesylate, napsylate, potassium, disodium, and tosylate salts were compared. In the hygroscopicity study, the salts were subjected to 75% relative humidity for five days.

SMILES: C=C(CC(NC(=O)c1ccc(CCc2ccc3nc(N)nc(N)c3c2)cc1)C(=O)O)C(=O)O (racemic) [CH-1504, 2-{4-[2-(2,4-diamino-quinazolin-6-yl)-ethyl]-benzoylamino}-4-methylene-pentanedioic acid]
percent dissolution [1]: about 45%
solubility (in words) [2]: poor solubility
IC50 [3]: 1700 nM
percent dissolution ([4]; FIG. 2, 45 minutes): 45%
percent dissolution ([4]; FIG. 3, 15 minutes): approximately 35%
percent dissolution ([4]; FIG. 3, 90 minutes): about 50%
AUC(0-inf) ([5]; 1 mg): 1.52 ng·h/mL
AUC(0-t) ([5]; 1 mg): 1.25 ng·h/mL
Cmax ([5]; 1 mg): 0.69 ng/mL
Tmax ([5]; 1 mg): 2.26 h
half-life ([5]; 1 mg): 0.99 h
AUC(0-inf) ([5]; 5 mg): 9.58 ng·h/mL
AUC(0-t) ([5]; 5 mg): 8.92 ng·h/mL
Cmax ([5]; 5 mg): 2.65 ng/mL
Tmax ([5]; 5 mg): 1.26 h
half-life ([5]; 5 mg): 3.21 h
AUC(0-inf) ([5]; 7.5 mg): 7.47 ng·h/mL
AUC(0-t) ([5]; 7.5 mg): 6.63 ng·h/mL
Cmax ([5]; 7.5 mg): 2.05 ng/mL
Tmax ([5]; 7.5 mg): 1.5 h
half-life ([5]; 7.5 mg): 2.71 h
AUC(0-inf) ([5]; 10 mg): 26 ng·h/mL
AUC(0-t) ([5]; 10 mg): 25.2 ng·h/mL
Cmax ([5]; 10 mg): 6 ng/mL
Tmax ([5]; 10 mg): 2.01 h
half-life ([5]; 10 mg): 3.13 h
AUC(0-inf) ([5]; 15 mg): 25.9 ng·h/mL
AUC(0-t) ([5]; 15 mg): 25 ng·h/mL
Cmax ([5]; 15 mg): 6.57 ng/mL
Tmax ([5]; 15 mg): 2.25 h
half-life ([5]; 15 mg): 3.2 h
AUC(0-inf) ([5]; 20 mg): 35.6 ng·h/mL
AUC(0-t) ([5]; 20 mg): 34.6 ng·h/mL
Cmax ([5]; 20 mg): 7.83 ng/mL
Tmax ([5]; 20 mg): 2.25 h
half-life ([5]; 20 mg): 3.91 h

SMILES: Nc1nc(N)c2nc(CNc3ccc(C(=O)N[C@@H](CCC(=O)O)C(=O)O)cc3)cnc2n1 [Aminopterin, reference compound]
IC50 [3]: 1500 nM

SMILES: Cc1ccc(S(=O)(=O)O)cc1.Cn1cc(-c2ccc3nnc(C(F)(F)c4ccc5ncccc5c4)n3n2)cn1 [tosylate salt]
hygroscopicity study outcome [7]: Tacky or gummy solids or solids not exhibiting birefringence and extinction

More lines, main results first:

Plasma conc. of D-CH-1504 ([6]; 1 h after 10 mg/kg oral): 31.5 ng/mL and 20.5 ng/mL and 11.0 ng/mL
Plasma conc. of D-CH-1504 ([6]; 3 h after 10 mg/kg oral): 14.3 ng/mL and 9.44 ng/mL and 8.93 ng/mL
Plasma conc. of D-CH-1504 ([6]; 6 h after 10 mg/kg oral): 8.34 ng/mL and 13.6 ng/mL and 8.01 ng/mL
IC50 [3]: 7600 nM
EC50 (CCRF-CEM cells): 29 nM
SMILES: C=C(C[C@@H](NC(=O)c1ccc(CCc2ccc3nc(N)nc(N)c3c2)cc1)C(=O)O)C(=O)O [D-CH-1504]
Plasma conc. of L-CH-1504 ([6]; 1 h after 10 mg/kg oral): 0.895 ng/mL and BLQ (Below limit of quantification (<0.500 ng/mL)) (2×)
Plasma conc. of L-CH-1504 ([6]; 3 h after 10 mg/kg oral): BLQ (Below limit of quantification (<0.500 ng/mL))
Plasma conc. of L-CH-1504 ([6]; 6 h after 10 mg/kg oral): BLQ (Below limit of quantification (<0.500 ng/mL))

Plasma conc. of L-CH-1504 ([6]; 1 h after 10 mg/kg oral): 139 ng/mL and 118 ng/mL
Plasma conc. of L-CH-1504 ([6]; 3 h after 10 mg/kg oral): 36.8 ng/mL and 59.7 ng/mL
Plasma conc. of L-CH-1504 ([6]; 6 h after 10 mg/kg oral): 22.2 ng/mL and 21.7 ng/mL
concentration at 1 h ([6]; female, Lewis, rat, plasma, oral, 10 mg/kg, 1 h after 10 mg/kg oral, read-out: Plasma conc. of L-CH-1504): 144 ng/mL
concentration at 3 h ([6]; female, Lewis, rat, plasma, oral, 10 mg/kg, 3 h after 10 mg/kg oral, read-out: Plasma conc. of L-CH-1504): 61.9 ng/mL
concentration at 6 h ([6]; female, Lewis, rat, plasma, oral, 10 mg/kg, 6 h after 10 mg/kg oral, read-out: Plasma conc. of L-CH-1504): 22.7 ng/mL
IC50 [3]: 1100 nM
SMILES: C=C(C[C@H](NC(=O)c1ccc(CCc2ccc3nc(N)nc(N)c3c2)cc1)C(=O)O)C(=O)O [L-CH-1504, (S)-2-{4-[2-(2,4-diamino-quinazolin-6-yl)-ethyl]-benzoylamino}-4-methylene-pentanedioic acid]
Plasma conc. of D-CH-1504 ([6]; 1 h after 10 mg/kg oral): BLQ (Below limit of quantification (<0.500 ng/mL))
Plasma conc. of D-CH-1504 ([6]; 3 h after 10 mg/kg oral): BLQ (Below limit of quantification (<0.500 ng/mL))
Plasma conc. of D-CH-1504 ([6]; 6 h after 10 mg/kg oral): BLQ (Below limit of quantification (<0.500 ng/mL))
